Measured values from patent US6706663B2, “Herbicidal 3-heterocyclic substituted benzisothiazole and benzisoxazole compounds” (Wyeth, priority 2000, dated 2004).

Columns and labels:
[1] = system: SETVI (Setaria viridis); assay: Postemergence herbicidal evaluation; type: in vivo, (L.) Beau; details: for SETVI herbicidal rating: postemergence
Summary of the method: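 First, seedlings are raised in flats for about two weeks. Next, compound dispersed in 50/50 acetone/water with 0.5% TWEEN 20 is sprayed at 40 psi to deliver about 0.0040–1.000 kg/ha. Plants are then maintained in the greenhouse and rated 0-9 after four to five weeks.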

[2] = system: ORYSAT (Rice, Tebonnet); assay: Postemergence herbicidal evaluation; type: in vivo, Oryza sativa, (L.) Tebonnet; details: for ORYSAT herbicidal rating: postemergence
Summary of the method: (§1)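 Seedlings grown for about two weeks were sprayed postemergence and then kept under standard greenhouse care. Injury was rated visually 4–5 weeks after treatment on a 0–9 scale against untreated controls, and ratings from repeat tests were averaged.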

[3] = system: TRZAWR (Wheat, Winter, cv Riband); assay: Postemergence herbicidal evaluation; type: in vivo, Triticum aestivum; details: for TRZAWR herbicidal rating: postemergence
Summary of the method: as §1

[4] = system: ABUTH (Abutilon theophrasti); assay: Preemergence herbicidal evaluation; type: in vivo, Medic.; details: rated 4-5 weeks after treatment
[5] = system: ECHCG (Echinochloa crus-galli); assay: Preemergence herbicidal evaluation; type: in vivo, (L.) Beau; details: rated 4-5 weeks after treatment
Summary of the method: (§2)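 Each species was sown separately in potting soil over roughly one inch of soil, and the surface sprayed with compound dissolved in aqueous acetone. Assessment used a 0–9 visual scale against a control after four to five weeks.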

[6] = system: SETVI (Setaria viridis); assay: Preemergence herbicidal evaluation; type: in vivo, (L.) Beau; details: rated 4-5 weeks after treatment
Summary of the method: as §2

[7] = system: MOOVA (Monochoria vaginalis); assay: Flooded paddy, preemergence weed control; type: in vivo, Presl.; details: rated 3-4 weeks after treatment, 0-9 rating scale
Summary of the method: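 Preemergence, flooded: propagules planted at 0.5 cm depth in silt loam, water level maintained at 1.5 to 3 cm over soil, containers kept on greenhouse benches. Activity scored 0-9 by eye relative to a control plant.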

[8] = system: ORYSAT (Rice, Tebonnet); assay: Flooded paddy, post-transplant rice tolerance; type: in vivo, Oryza sativa, (L.) Tebonnet; details: flooded paddy, post-transplant rice, rated 3-4 weeks after treatment, 0-9 rating scale
Summary of the method: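 Steps: transplant two ten-day-old seedlings into silt loam; flood to 1.5-3 cm above soil; apply herbicide post-transplant; maintain water on greenhouse benches; rate stand, vigor, malformation, size and chlorosis on a 0-9 visual scale versus control.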

| SMILES | SETVI herbicidal rating ([1]; rate 0.0320 kg/ha) | SETVI herbicidal rating ([1]; rate 0.0620 kg/ha) | ORYSAT herbicidal rating ([2]; rate 0.0320 kg/ha) | ORYSAT herbicidal rating ([2]; rate 0.0620 kg/ha) | TRZAWR herbicidal rating ([3]; rate 0.0320 kg/ha) | TRZAWR herbicidal rating ([3]; rate 0.0620 kg/ha) | Preemergence herbicidal rating ABUTH ([4]; Rate 0.0620 kg/ha) | Preemergence herbicidal rating ABUTH ([4]; Rate 0.1250 kg/ha) | Preemergence herbicidal rating ABUTH ([4]; Rate 0.2500 kg/ha) | Preemergence herbicidal rating ECHCG ([5]; Rate 0.0620 kg/ha) | Preemergence herbicidal rating ECHCG ([5]; Rate 0.1250 kg/ha) | Preemergence herbicidal rating ECHCG ([5]; Rate 0.2500 kg/ha) | Preemergence herbicidal rating SETVI ([6]; Rate 0.0620 kg/ha) | Preemergence herbicidal rating SETVI ([6]; Rate 0.1250 kg/ha) | Preemergence herbicidal rating SETVI ([6]; Rate 0.2500 kg/ha) | herbicidal rating, MOOVA ([7]; rate 0.0320 kg/ha) | herbicidal rating, MOOVA ([7]; rate 0.1250 kg/ha) | herbicidal rating, ORYSAT (rice tolerance) ([8]; rate 0.0080 kg/ha) | herbicidal rating, ORYSAT (rice tolerance) ([8]; rate 0.0320 kg/ha) | herbicidal rating, ORYSAT (rice tolerance) ([8]; rate 0.1250 kg/ha) | further results |
| --- | --- | --- | --- | --- | --- | --- | --- | --- | --- | --- | --- | --- | --- | --- | --- | --- | --- | --- | --- | --- | --- |
| C=CC1COC(c2nsc3ccc(-n4c(=O)cc(C(F)(F)F)n(C)c4=O)cc23)O1 (stereo not drawn) [Compound 76, 1-methyl-6-(trifluoromethyl)-3-[3-(4-vinyl-1,3-dioxolan-2-yl)-1,2-benzisothiazol-5-yl]uracil] | 7.0 | 9.0 | 3.5 | 4.0 | 3.0 | 3.5 | 9.0 | 9.0 | 9.0 | 9.0 | 9.0 | 9.0 | 9.0 | 9.0 | 9.0 | 9.0 | 9.0 | 2.0 | 3.0 | 9.0 | herbicidal rating, MOOVA ([7]; rate 0.0080 kg/ha): 9.0 |
| Cn1c(C(F)(F)F)cc(=O)n(-c2ccc3snc(-c4ccco4)c3c2)c1=O [Compound 60, 3-[3-(2-furyl)-1,2-benzisothiazol-5-yl]-1-methyl-6-(trifluoromethyl)uracil] | 3.0 | 2.0 | 3.5 | 4.0 | 4.0 | 4.5 | 5.0 | 5.0 | 9.0 | 1.0 | 6.0 | 7.0 | 3.0 | 7.0 | 9.0 | 9.0 | 9.0 | 0.0 | 1.5 | 2.5 | herbicidal rating, MOOVA ([7]; rate 0.0080 kg/ha): 0.0 |
| C[C@@H]1C[C@H](C)OC(c2nsc3ccc(-n4c(=O)cc(C(F)(F)F)n(C)c4=O)cc23)O1 (stereo partly drawn) [Compound 51, 3-[3-[(4R,6S)-4,6-dimethyl-m-dioxan-2-yl]-1,2-benzisothiazol-5-yl]-1-methyl-6-(trifluoromethyl)uracil] | 3.0 | 3.0 | 3.0 | 4.0 | 3.5 | 4.0 | 9.0 | 9.0 | 9.0 | 9.0 | 9.0 | 9.0 | 9.0 | 9.0 | 9.0 | 9.0 | 9.0 | 7.0 | 9.0 | 9.0 | – |
| Cc1cccnc1-c1nsc2cc(F)c(N3C(=O)C4=C(CCCC4)C3=O)cc12 [Compound 46, N-[6-fluoro-3-(3-methyl-2-pyridyl)-1,2-benzisothiazol-5-yl]-1-cyclohexene-1,2-dicarboximide] | – | – | – | – | – | – | 5.0 | 4.0 | 9.0 | 1.0 | 5.0 | 8.0 | 9.0 | 9.0 | 9.0 | 7.0 | 7.0 | – | 2.0 | 3.0 | Postemergence herbicidal rating, SETVI ([1]; rate 0.0320 kg/ha): 3.0; Postemergence herbicidal rating, SETVI ([1]; rate 0.0620 kg/ha): 4.0; Postemergence herbicidal rating, SETVI ([1]; rate 0.1250 kg/ha): 9.0; Postemergence herbicidal rating, ORYSAT ([2]; rate 0.0320 kg/ha): 4.0; Postemergence herbicidal rating, ORYSAT ([2]; rate 0.0620 kg/ha): 3.5; Postemergence herbicidal rating, ORYSAT ([2]; rate 0.1250 kg/ha): 4.5; Postemergence herbicidal rating, TRZAWR ([3]; rate 0.0320 kg/ha): 4.0; Postemergence herbicidal rating, TRZAWR ([3]; rate 0.0620 kg/ha): 4.5; Postemergence herbicidal rating, TRZAWR ([3]; rate 0.1250 kg/ha): 5.0 |
| Cn1c(C(F)(F)F)cc(=O)n(-c2ccc3snc(C4=NCCO4)c3c2)c1=O [Compound 75, 1-methyl-3-[3(2-oxazolin-2-yl)-1,2-benzisothiazol-5-yl]-6-(trifluoromethyl)uracil] | 2.0 | 4.0 | 2.5 | 3.5 | 2.0 | 3.5 | 1.0 | 1.0 | 9.0 | 0.0 | 1.0 | 6.0 | 0.0 | 1.0 | 6.0 | 7.0 | 9.0 | 2.5 | 4.5 | 6.0 | herbicidal rating, MOOVA ([7]; rate 0.0080 kg/ha): 0.0 |
| Cn1c(C(F)(F)F)cc(=O)n(-c2ccc3snc(C4OCC5(CO4)CO5)c3c2)c1=O (stereo not drawn) [Compound 70, 1-methyl-3-(3-spiro[m-dioxane-5,2′-oxiran]-2-yl-1,2-benzisothiazol-5-yl)-6-(trifluoromethyl)uracil] | 9.0 | 9.0 | 5.0 | 6.0 | 5.0 | 5.5 | 9.0 | 9.0 | – | 3.0 | 7.0 | – | 6.0 | 9.0 | – | 0.0 | 0.0 | 0.0 | 0.0 | 0.0 | herbicidal rating, MOOVA ([7]; rate 0.0080 kg/ha): 0.0 |
| CC(=O)N1CCSC1c1nsc2ccc(-n3c(=O)cc(C(F)(F)F)n(C)c3=O)cc12 (stereo not drawn) [Compound 29, 3-acetyl-2-[5-[3,6-dihydro-3-methyl-2,6-dioxo-4-(trifluoromethyl)-1(2H)-pyrimidinyl]-1,2-benzisothiazol-3-yl]thiazolidine] | – | – | – | – | – | – | – | – | – | – | – | – | – | – | – | 9.0 | 9.0 | 0.0 | 3.5 | 7.0 | Postemergence herbicidal rating, SETVI ([1]; rate 0.0320 kg/ha): 0.0; Postemergence herbicidal rating, SETVI ([1]; rate 0.0620 kg/ha): 5.0; Postemergence herbicidal rating, ORYSAT ([2]; rate 0.0320 kg/ha): 3.0; Postemergence herbicidal rating, ORYSAT ([2]; rate 0.0620 kg/ha): 3.0; Postemergence herbicidal rating, TRZAWR ([3]; rate 0.0320 kg/ha): 4.5; Postemergence herbicidal rating, TRZAWR ([3]; rate 0.0620 kg/ha): 4.5; ABUTH preemergence herbicidal rating ([4]; Rate 0.0620 kg/ha): 8.0; ABUTH preemergence herbicidal rating ([4]; Rate 0.1250 kg/ha): 9.0; ABUTH preemergence herbicidal rating ([4]; Rate 0.2500 kg/ha): 9.0; ECHCG preemergence herbicidal rating ([5]; Rate 0.0620 kg/ha): 5.5; ECHCG preemergence herbicidal rating ([5]; Rate 0.1250 kg/ha): 6.5; ECHCG preemergence herbicidal rating ([5]; Rate 0.2500 kg/ha): 8.0; SETVI preemergence herbicidal rating ([6]; Rate 0.0620 kg/ha): 6.5; SETVI preemergence herbicidal rating ([6]; Rate 0.1250 kg/ha): 7.5; SETVI preemergence herbicidal rating ([6]; Rate 0.2500 kg/ha): 9.0; herbicidal rating, MOOVA ([7]; rate 0.0080 kg/ha): 0.0 |
